Experimental data taken from PMC5578959, “Selective LRRK2 kinase inhibition reduces phosphorylation of endogenous Rab10 and Rab12 in human peripheral mononuclear blood cells” (Scientific Reports, 2017).

Columns and labels:
Assay in all cases: KiNativ profiling in human PBMCs
Type in all cases: binding
CK1g2 = test system: T1, CK1g2; conditions: Lys2
T1 construct: purchased ActivX Technologies (KiNativ)
Summary of the method: (§1)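 After live treatment with either 0.1 µM or 1 µM compound, human peripheral blood mononuclear cells underwent KiNativ kinase profiling to compare engagement and selectivity.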

MAST3 = test system: T2, MAST3; conditions: Lys2
T2 construct: purchased ActivX Technologies (KiNativ)
Summary of the method: as §1

ULK3 = test system: T3, ULK3
T3 construct: purchased ActivX Technologies (KiNativ)
Summary of the method: as §1

PRPK = test system: T4, PRPK; conditions: ATP Loop
T4 construct: purchased ActivX Technologies (KiNativ)
Summary of the method: as §1

PKD2 = test system: T5, PKD2; conditions: Lys1
T5 construct: purchased ActivX Technologies (KiNativ)
Summary of the method: as §1

CDK7 = test system: T6, CDK7
T6 construct: purchased ActivX Technologies (KiNativ)
Summary of the method: as §1

CDK11,CDK8 = conditions: Lys2
Summary of the method: as §1

JAK3 domain2 = test system: T7, JAK3 domain2
T7 construct: JAK3 domain2; purchased ActivX Technologies (KiNativ)
Summary of the method: as §1

LATS1 = test system: T8, LATS1
T8 construct: purchased ActivX Technologies (KiNativ)
Summary of the method: as §1

LCK = test system: T9, LCK; conditions: 1µM; Activation Loop
T9 construct: purchased ActivX Technologies (KiNativ)
Summary of the method: as §1

IRAK1 = test system: T10, IRAK1; conditions: Lys2
T10 construct: purchased ActivX Technologies (KiNativ)
Summary of the method: as §1

PITSLRE = test system: T11, PITSLRE; conditions: Lys2
T11 construct: purchased ActivX Technologies (KiNativ)
Summary of the method: as §1

RIPK3 = test system: T12, RIPK3; conditions: Lys2
T12 construct: purchased ActivX Technologies (KiNativ)
Summary of the method: as §1

TAK1 = test system: T13, TAK1; conditions: Lys2
T13 construct: purchased ActivX Technologies (KiNativ)
Summary of the method: as §1

MSK2 domain1 = test system: T14, MSK2 domain1; conditions: Lys2
T14 construct: MSK2 domain1; purchased ActivX Technologies (KiNativ)
Summary of the method: as §1

PIK3C3 = test system: T15, PIK3C3; conditions: ATP
T15 construct: purchased ActivX Technologies (KiNativ)
Summary of the method: as §1

p70S6K,p70S6Kb = conditions: ATP Loop
Summary of the method: as §1

ULK1 = test system: T16, ULK1; conditions: Lys2
T16 construct: purchased ActivX Technologies (KiNativ)
Summary of the method: as §1

PAN3 = test system: T17, PAN3; conditions: Protein Kinase Domain
T17 construct: purchased ActivX Technologies (KiNativ)
Summary of the method: as §1

Wnk1,Wnk2,Wnk4 = conditions: Activation Loop
Summary of the method: as §1

MST1 = test system: T18, MST1; conditions: Lys1
T18 construct: purchased ActivX Technologies (KiNativ)
Summary of the method: as §1

KSR1 = test system: T19, KSR1; conditions: 0.1µM; Activation Loop
T19 construct: purchased ActivX Technologies (KiNativ)
Summary of the method: as §1

BTK = test system: T20, BTK; conditions: Activation Loop
T20 construct: purchased ActivX Technologies (KiNativ)
Summary of the method: as §1

CaMK4 = test system: T21, CaMK4
T21 construct: purchased ActivX Technologies (KiNativ)
Summary of the method: as §1

STLK3 = test system: T22, STLK3; conditions: Lys2
T22 construct: purchased ActivX Technologies (KiNativ)
Summary of the method: as §1

TAO1,TAO3 = conditions: Lys2
Summary of the method: as §1

CDK2 = test system: T23, CDK2
T23 construct: purchased ActivX Technologies (KiNativ)
Summary of the method: as §1

ACK = test system: T24, ACK; conditions: Lys1
T24 construct: purchased ActivX Technologies (KiNativ)
Summary of the method: as §1

SNRK = test system: T25, SNRK; conditions: Lys2
T25 construct: purchased ActivX Technologies (KiNativ)
Summary of the method: as §1

MARK1,MARK2 = conditions: Lys1
Summary of the method: as §1

IRAK4 = test system: T26, IRAK4
T26 construct: purchased ActivX Technologies (KiNativ)
Summary of the method: as §1

p70S6K = test system: T27, p70S6K; conditions: Lys2
T27 construct: purchased ActivX Technologies (KiNativ)
Summary of the method: as §1

IKKe,TBK1 = conditions: Lys2
Summary of the method: as §1

[1] = test system: CaMK2a,CaMK2b,CaMK2d,CaMK2g; conditions: Lys2
Summary of the method: as §1

MARK3 = test system: T28, MARK3; conditions: Lys1
T28 construct: purchased ActivX Technologies (KiNativ)
Summary of the method: as §1

PFTAIRE1 = test system: T29, PFTAIRE1; conditions: Lys1
T29 construct: purchased ActivX Technologies (KiNativ)
Summary of the method: as §1

RSK3 domain1 = test system: T30, RSK3 domain1; conditions: Lys2
T30 construct: RSK3 domain1; purchased ActivX Technologies (KiNativ)
Summary of the method: as §1

Q: Which results are given for `Cc1cccc(-c2cc(Nc3ccn(C)n3)nc3[nH]cc(C#N)c23)c1` [Lu AF58786]?
A: Inhibition (CK1g2; 0.1µM): 5.2%; Inhibition (CK1g2; 1µM): -0.12%; Inhibition (MAST3; 0.1µM): 11.5%; Inhibition (MAST3; 1µM): 0.2%; Inhibition (ULK3; 0.1µM, Lys1): 3.2%; Inhibition (ULK3; 0.1µM, Lys2): -16.6%; Inhibition (ULK3; 1µM, Lys1): 2.2%; Inhibition (ULK3; 1µM, Lys2): -15.6%; Inhibition (PRPK; 0.1µM): 1.0%; Inhibition (PRPK; 1µM): 8.9%; Inhibition (PKD2; 0.1µM): 14.5%; Inhibition (PKD2; 1µM): 15.3%; Inhibition (CDK7; 0.1µM, Lys1): 3.7%; Inhibition (CDK7; 0.1µM, Lys2): 9.8%; Inhibition (CDK7; 1µM, Lys1): -0.256%; Inhibition (CDK7; 1µM, Lys2): 18.0%; Inhibition (CDK11,CDK8; 0.1µM): -20.3%; Inhibition (CDK11,CDK8; 1µM): -2.0%; Inhibition (JAK3 domain2; 0.1µM, Activation Loop): 4.0%; Inhibition (JAK3 domain2; 0.1µM, Lys1): 12.9%; Inhibition (JAK3 domain2; 1µM, Activation Loop): 52.9%; Inhibition (JAK3 domain2; 1µM, Lys1): 20.6%; Inhibition (LATS1; 0.1µM, Lys1): 5.7%; Inhibition (LATS1; 0.1µM, Lys2): -2.7%; Inhibition (LATS1; 1µM, Lys1): 11.6%; Inhibition (LCK): 5.7%; Inhibition (IRAK1; 0.1µM): 3.0%; Inhibition (IRAK1; 1µM): 1.7%; Inhibition (PITSLRE; 0.1µM): 2.7%; Inhibition (PITSLRE; 1µM): -9.8%; Inhibition (RIPK3; 0.1µM): 2.4%; Inhibition (RIPK3; 1µM): -10.9%; Inhibition (TAK1; 0.1µM): 21.8%; Inhibition (TAK1; 1µM): -11.4%; Inhibition (MSK2 domain1; 0.1µM): 28.3%; Inhibition (MSK2 domain1; 1µM): 19.0%; Inhibition (PIK3C3; 0.1µM): 1.5%; Inhibition (PIK3C3; 1µM): -10.0%; Inhibition (p70S6K,p70S6Kb; 0.1µM): 3.7%; Inhibition (p70S6K,p70S6Kb; 1µM): -2.7%; Inhibition (ULK1; 0.1µM): -3.7%; Inhibition (ULK1; 1µM): -7.0%; Inhibition (PAN3; 0.1µM): -11.9%; Inhibition (PAN3; 1µM): -9.9%; Inhibition (Wnk1,Wnk2,Wnk4; 0.1µM): 0.9%; Inhibition (Wnk1,Wnk2,Wnk4; 1µM): -6.6%; Inhibition (MST1; 0.1µM): 26.2%; Inhibition (MST1; 1µM): 19.0%; Inhibition (KSR1): -19.0%; Inhibition (BTK; 0.1µM): 25.8%; Inhibition (BTK; 1µM): 9.5%; Inhibition (CaMK4; 0.1µM, Lys1): 11.0%; Inhibition (CaMK4; 0.1µM, Lys2): 14.0%; Inhibition (CaMK4; 1µM, Lys1): 23.7%; Inhibition (CaMK4; 1µM, Lys2): 12.9%; Inhibition (STLK3; 0.1µM): 22.4%; Inhibition (STLK3; 1µM): -36.2%; Inhibition (TAO1,TAO3; 0.1µM): 27.6%; Inhibition (TAO1,TAO3; 1µM): 15.9%; Inhibition (CDK2; 0.1µM, Lys1): 5.0%; Inhibition (CDK2; 0.1µM, Lys2): 7.1%; Inhibition (CDK2; 1µM, Lys1): 9.2%; Inhibition (CDK2; 1µM, Lys2): 5.2%; Inhibition (ACK; 0.1µM): -14.9%; Inhibition (ACK; 1µM): -10.3%; Inhibition (SNRK; 0.1µM): 22.5%; Inhibition (SNRK; 1µM): 15.1%; Inhibition (MARK1,MARK2; 0.1µM): 16.5%; Inhibition (MARK1,MARK2; 1µM): 7.1%; Inhibition (IRAK4; 0.1µM, Lys1): 16.2%; Inhibition (IRAK4; 0.1µM, Lys2): 7.0%; Inhibition (IRAK4; 1µM, Lys1): 13.3%; Inhibition (IRAK4; 1µM, Lys2): 8.9%; Inhibition (p70S6K; 0.1µM): -7.6%; Inhibition (p70S6K; 1µM): -5.7%; Inhibition (IKKe,TBK1; 0.1µM): -16.4%; Inhibition (IKKe,TBK1; 1µM): -9.8%; Inhibition ([1]; 0.1µM): -12.1%; Inhibition ([1]; 1µM): -1.0%; Inhibition (MARK3; 0.1µM): 2.1%; Inhibition (MARK3; 1µM): 3.2%; Inhibition (PFTAIRE1; 0.1µM): 5.8%; Inhibition (PFTAIRE1; 1µM): -10.2%; Inhibition (RSK3 domain1; 0.1µM): 12.9%; Inhibition (RSK3 domain1; 1µM): 26.9%
